# According to article PMC8096243 (Nucleic Acids Research, 2021):
# Experiments:
# Type in all cases: binding
# EcCdnD [1] = target: T1, EcCdnD (Enterobacter hormaechei, UniProt P0DSP4); experiment: crystal structure
# T1 sequence (P0DSP4 1-381): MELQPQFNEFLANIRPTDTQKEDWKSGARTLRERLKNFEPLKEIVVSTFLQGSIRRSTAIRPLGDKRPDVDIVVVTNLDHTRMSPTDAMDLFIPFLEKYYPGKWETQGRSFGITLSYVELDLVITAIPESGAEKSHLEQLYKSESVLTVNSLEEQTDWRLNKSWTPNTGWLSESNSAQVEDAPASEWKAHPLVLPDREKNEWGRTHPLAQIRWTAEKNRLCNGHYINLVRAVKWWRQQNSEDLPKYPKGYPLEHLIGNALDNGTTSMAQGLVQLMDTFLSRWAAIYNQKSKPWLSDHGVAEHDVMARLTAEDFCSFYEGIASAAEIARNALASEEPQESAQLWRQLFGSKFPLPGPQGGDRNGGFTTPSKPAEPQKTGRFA
# EcCdnD [2] = target: T1, EcCdnD; experiment: ITC, single site
# EcCdnD [3] = target: T1, EcCdnD; experiment: crystal structure; remark: listed apart in the source
compound,measurement,setting,value
Nc1ncnc2c1ncn2[C@@H]1O[C@H](COP(=O)(O)OP(=O)(O)O)[C@@H](O)[C@H]1O [ADP],"crystal structure (1.87 Å), together with donor ATP",EcCdnD [1],"The diphosphate group makes seven hydrogen bonds with Arg109, Arg197 and Arg307"
Nc1nc2c(ncn2[C@@H]2O[C@H](COP(=O)(O)O[C@H]3[C@@H](O)[C@H](n4cnc5c(N)ncnc54)O[C@@H]3COP(=O)(O)OP(=O)(O)OP(=O)(O)O)[C@@H](O)[C@H]2O)c(=O)[nH]1 [5′-pppApG-3′],Kd,EcCdnD [2],29.7 ± 2.2 µM
Nc1ncnc2c1ncn2[C@H]1CC[C@@H](CO[P@@](=O)(O)O[P@](=O)(O)OP(=O)(O)O)O1 [ddATP],crystal structure (2.09 Å),EcCdnD [3],the ddATP occupied the binding site for the donor substrate
